From US20110039763A1, “TARGETED ANTIMICROBIAL MOIETIES” (C3 JIAN, INC., priority 2009, published 2011)
Entries after “also recorded” stand apart in the source; their conditions may differ.

B1: PF-389: peptide having multiple activities (peptide)
chain 1: GLQFKEIAEEFHITTTALQQWHKDNGYPIYNKNNRK
chain 2: B1 chain 1
modifications: Peptide with targeting and/or antimicrobial activity
B2: PF-C181: peptide having multiple activities (peptide)
chain 1: KMRAGQVVFIYKLILVLLFYVLQKLFDLKKGCF
chain 2: B2 chain 1
modifications: Peptide with targeting and/or antimicrobial activity
B3: PF-C091: peptide having multiple activities (peptide)
chain 1: ASNTPRFVRLTLFNFYSKIWNVTHLFLFNNL
chain 2: B3 chain 1
modifications: Peptide with targeting and/or antimicrobial activity
B4: PF-C120: peptide having multiple activities (peptide)
chain 1: ASLSTMTFKVMELKELIILLCGLTMLMIQTEFV
chain 2: B4 chain 1
modifications: Peptide with targeting and/or antimicrobial activity
B5: PF-270: peptide having multiple activities (peptide)
chain 1: MYLTPYAWIAVGSIFAFSVTTIKIGDQNDEKQKSHKNDVHKR
chain 2: B5 chain 1
modifications: Peptide with targeting and/or antimicrobial activity
B6: PF-C180: peptide having multiple activities (peptide)
chain 1: TVEELDKAFTWGAAAALAIGVIAINVGLAAGYCYNNNDVF
chain 2: B6 chain 1
modifications: Peptide with targeting and/or antimicrobial activity

Columns and labels:
[1] = system: microorganisms; assay: Targeting peptide binding to target microorganisms (Tables 3, 10, 12); settings: microorganism(s) the targeting peptide binds; binding in aqueous buffers varied with peptide solubility, preferably 1x PBS
[2] = system: microorganisms; assay: Morphology, biofilm and growth disrupting peptides (Table 5); format: cell-based; set-up: key: A: Peptide aggregates; B: Less hyphal formation; Clumps; Diffuse clumps and small polyps; F: Diffuse growth; H: Thin; I: Growth inhibition; Microcolony formation; Rippled; Small polyps; Thick; W: Halo formation on top, microlonies on bottom
Source text: In certain embodiments peptides that induce alterations in phenotype or other biological activities can also be used as antimicrobial effector moieties.

[3] = system: microorganisms; assay: Peptide activities: targeting/binding, antimicrobial, growth or phenotype altering (Tables 7, 8); format: cell-based; settings: peptides having multiple activities

Molecule	Target(s) [1]	Organism, effect ([2]; F. nucleatum)	Activities [3]	Organism, effect ([2]; S. mutans)	further results
PF-C136: peptide having multiple activities (chain 1 LILSYQASVYPLFAYLCQQKDY; chain 2 LILSYQASVYPLFAYLCQQKDY; Peptide with targeting and/or antimicrobial activity)	A. naeslundii; also recorded: F. nucleatum; also recorded: P. gingivalis; also recorded: S. mutans; also recorded: T. denticola	F. nucleatum (C)	G B		Organism, effect ([2]; P. gingivalis): P. gingivalis (R)
PF-C137: peptide having multiple activities (chain 1 QRMYWFKRGFETGDFSAGDTFAELK; chain 2 QRMYWFKRGFETGDFSAGDTFAELK; Peptide with targeting and/or antimicrobial activity)	A. naeslundii; also recorded: F. nucleatum; also recorded: P. gingivalis; also recorded: S. mutans	F. nucleatum (T)	G B		
PF-C139: peptide having multiple activities (chain 1 LLASHPERLSLGVFFVYRVLHLLLENT; chain 2 LLASHPERLSLGVFFVYRVLHLLLENT; Peptide with targeting and/or antimicrobial activity)	A. naeslundii; also recorded: F. nucleatum; also recorded: P. gingivalis; also recorded: S. mutans; also recorded: T. denticola		G B	S. mutans (F)	
PF-C142: peptide having multiple activities (chain 1 DFPPLSFFRRRFHAYTAPIDNFFGANPF; chain 2 DFPPLSFFRRRFHAYTAPIDNFFGANPF; Peptide with targeting and/or antimicrobial activity)	A. naeslundii; also recorded: F. nucleatum; also recorded: P. gingivalis; also recorded: S. mutans; also recorded: T. denticola		G B	S. mutans (I)	
PF-C143: peptide having multiple activities (chain 1 VVFGGGDRLV; chain 2 VVFGGGDRLV; Peptide with targeting and/or antimicrobial activity)	A. naeslundii; also recorded: F. nucleatum; also recorded: P. gingivalis; also recorded: S. mutans; also recorded: T. denticola	F. nucleatum (C)	G B		
PF-C145: peptide having multiple activities (chain 1 YGKESDP; chain 2 YGKESDP; Peptide with targeting and/or antimicrobial activity)	A. naeslundii; also recorded: F. nucleatum; also recorded: P. gingivalis; also recorded: S. mutans; also recorded: T. denticola	F. nucleatum (C)	G B	S. mutans (I)	
PF-C281: peptide having multiple activities (chain 1 KKEKLLTAIRLQHRAEIRGYFTIFFLFFRI; chain 2 KKEKLLTAIRLQHRAEIRGYFTIFFLFFRI; Peptide with targeting and/or antimicrobial activity)	A. naeslundii; also recorded: F. nucleatum; also recorded: P. gingivalis; also recorded: S. mutans; also recorded: T. denticola		G B	S. mutans (F)	
PF-C291: peptide having multiple activities (chain 1 HPFLTGTGCPLFLIFRLFFVKAYFSFTVF; chain 2 HPFLTGTGCPLFLIFRLFFVKAYFSFTVF; Peptide with targeting and/or antimicrobial activity)	A. naeslundii; also recorded: F. nucleatum; also recorded: P. gingivalis; also recorded: S. mutans	F. nucleatum (T)	G B	S. mutans (F)	
SIGSMIGMYSFRHKTKHIKFTFGIPFILFLQFLLVYFYILK [PF-319]	S. epidermidis; also recorded: B. subtilis; also recorded: C. difficile		G B		Organism, effect: B. subtilis ([2]; B. subtilis): B. subtilis (C); Organism, effect: S. epidermidis [2]: S. epidermidis (C)
VWENRKKYLENEIERHNVFLKLGQEVIKGLNALASRGR [PF-257]	S. epidermidis		G B		Organism, effect: M. luteus [2]: M. luteus (R)
B1	S. epidermidis and C. albicans and MRSA and S. pneumoniae and E. faecalis and C. jeikeium		G B		Organism, effect: C. jejuni ([2]; C. jejuni): C. jejuni (R); Organism, effect: E. faecalis ([2]; E. faecalis): E. faecalis (R); Organism, effect: MRSA ([2]; MRSA): MRSA (C); Organism, effect: S. epidermidis [2]: S. epidermidis (R); Organism, effect: S. pneumoniae ([2]; S. pneumoniae): S. pneumoniae (D)
B2	P. gingivalis	F. nucleatum (T)	G B		
B3	A. naeslundii; also recorded: F. nucleatum; also recorded: P. gingivalis; also recorded: S. mutans; also recorded: T. denticola	F. nucleatum (T)	G B		
B4	A. naeslundii; also recorded: F. nucleatum; also recorded: P. gingivalis; also recorded: S. mutans; also recorded: T. denticola	F. nucleatum (T)	G B		
B5	S. epidermidis; also recorded: M. luteus; also recorded: P. aeruginosa		G B		Organism, effect: M. luteus [2]: M. luteus (H)
B6	F. nucleatum; also recorded: P. gingivalis; also recorded: S. mutans; also recorded: T. denticola		G B	S. mutans (S)	Organism, effect ([2]; P. gingivalis): P. gingivalis (R)
